Laboratory results published in PMC12428237, “Study on the Calcium Transport-Promoting Property and Mechanism of the Peptide–Calcium Complex DEEENDQVK–Ca Based on a Caco-2 Monolayer Model” (Foods, 2025).

Assays:
calbindin-D9k = test: RT-qPCR, calbindin-D9k mRNA expression; assay type: cell-based, human; settings: Caco-2 monolayer, 24 h, 2 mg/mL DK–Ca or 2 mg/mL DK + 7.5 mM CaCl2; normalized to GAPDH, 2^-ΔΔCt; n = 3
Procedure: (§1) The expression levels of genes related to calcium transport channels were determined following the method of Li et al.. After 21 days of establishing the Caco-2 monolayer model, the monolayers were treated for 24 h with a complete medium containing 2 mg/mL DK–Ca or 2 mg/mL DK + 7.5 mM CaCl2. The group without an added sample served as the control group. Subsequently, the monolayers were washed thrice with HBSS buffer before cell lysis using 200 μL RNAiso Plus. Total RNA was extracted, and first-strand cDNA synthesis was subsequently performed with the PrimeScript® RT reagent kit as per the kit manufacturer’s instructions. Using cDNA as a template, RT-qPCR was performed with gene-specific primers targeting TRPV6, calbindin-D9k, PMCA1b, occludin, and claudin-2. The standard procedure for PCR amplification was as follows: 95 °C for 30 s, followed by 40 cycles of 95 °C for 5 s, 60 °C for 30 s, and 72 °C for 1 min. Target gene expression level was normalized to GAPDH and calculated using the 2^^(-ΔΔCt) relative quantification method. In experimental groups, GAPDH served as the internal reference gene for normalization. All primer sequences used in this study are detailed in Table S1.

Caco-2 monolayer [1] = test: Effect of dietary components (vitamin D3, phytic acid) on calcium transport in Caco-2 monolayer; assay type: cell-based, human; settings: 120 min, control without dietary component, n = 3
Procedure: Vitamin D3 (0.5 μmol/L, dissolved in 0.1% ethanol) or phytic acid (1.8 mM, with a of phytic acid/calcium molar ratio of 0.24) was added to the AP side to evaluate the effect of dietary components on calcium transport. The group without an added dietary component served as the control group. After 120 min incubation, the BL side solution was collected for calcium transport analysis.

TRPV6 = test: RT-qPCR, TRPV6 mRNA expression; assay type: cell-based, human; settings: Caco-2 monolayer, 24 h, 2 mg/mL DK–Ca or 2 mg/mL DK + 7.5 mM CaCl2; normalized to GAPDH, 2^-ΔΔCt; n = 3
Procedure: as §1

claudin-2 = test: RT-qPCR, claudin-2 mRNA expression; assay type: cell-based, human; settings: Caco-2 monolayer, 24 h, 2 mg/mL DK–Ca or 2 mg/mL DK + 7.5 mM CaCl2; normalized to GAPDH, 2^-ΔΔCt; n = 3
Procedure: as §1

PMCA1b = test: RT-qPCR, PMCA1b mRNA expression; assay type: cell-based, human; settings: Caco-2 monolayer, 24 h, 2 mg/mL DK–Ca or 2 mg/mL DK + 7.5 mM CaCl2; normalized to GAPDH, 2^-ΔΔCt; n = 3
Procedure: as §1

[2] = Caco-2; cited from earlier work
Caco-2 monolayer [3] = test: Fluo-4 AM fluorescence imaging of intracellular calcium influx; assay type: cell-based, human; settings: samples containing 150 μg/mL calcium, 24 h, Fluo-4 AM 4 μmol/L, confocal microscope
Procedure: Fluorescence imaging based on intracellular calcium influx was conducted to assess the calcium transport-promoting effect in the Caco-2 monolayer following the method of Men et al.. Log-phase cells were seeded at 1.5 × 10^5 cells/well in 35 mm laser confocal dishes and gently agitated to ensure uniform distribution. Cultures were maintained at 37 °C in 5% CO2 with daily medium replacement until confluent monolayers formed. Subsequently, CaCl2, DK + CaCl2, and DK–Ca solutions (each containing 150 μg/mL calcium) were added separately. The group without an added sample served as the control group. Following 24 h of incubation, the cells were washed thrice with prewarmed calcium-/magnesium-free HBSS buffer (pH 7.2). Under light-protected conditions, 200 µL of Fluo-4 AM (4 μmol/L) was applied to cover the cells. Following 30 min incubation at 37 °C and subsequent washes, cells were dark-adapted for 10 min at room temperature for de-esterification. Imaging was conducted using a confocal microscope (excitation at 496 nm, Zeiss LSM980 Airyscan2, Carl Zeiss, Germany ), followed by quantification of the fluorescence intensity with ImageJ 1.54 g software.

In the case of “DEEENDQVK–Ca [DK–Ca, complex formed by chemically chelating DK with CaCl2]”, the “calbindin-D9k mRNA expression, upregulation compared to the untreated control group” value (calbindin-D9k) is reported as 2.26 fold, the “reduction of transported calcium by phytic acid compared to the control group” value (Caco-2 monolayer [1]; phytic acid 1.8 mM (phytic acid/calcium molar ratio 0.24) on AP side) is reported as 7.83% and the “increase of transported calcium by vitamin D3 compared to the control group” value (Caco-2 monolayer [1]; vitamin D3 0.5 μmol/L on AP side) is reported as 11.3%. For the same substance, the “TRPV6 mRNA expression, upregulation compared to the untreated control group” value (TRPV6) was 2.70 fold, the “claudin-2 mRNA expression, upregulation compared to the control group” value (claudin-2) was 1.50 fold and the “PMCA1b mRNA expression, upregulation compared to the untreated control group” value (PMCA1b) was 2.17 fold. The “calcium dialysis rate relative to CaCO3” value [2] was 1.79 times, the “solubility relative to blank control group (CaCO3)” value [2] was 1.56 times and the “fluorescence intensity (intracellular calcium influx) compared to the control group” value (Caco-2 monolayer [3]) was “significantly increased”.
